Test results from US20170144969A1, “ANT[…], METHOD FOR PRODUCTION AND USES THEREOF” (priority 2014, published 2017).
Values joined by “and” are separate entries in the source; they are usually repeats but may differ in a detail not shown here. Equal entries are not always repeated. Where two headings read alike, the source gives them in different places.

How the values were obtained:
human Red Blood Cells = assay: Haemolytic activity; details: Table 3; human RBCs, 1 h at 37° C.
MRSA (ATCC 33591) = assay: Minimum Inhibitory Concentration, micro-dilution broth; type: cell-based, methicillin-resistant S. aureus; details: 24 h, 37° C.
[1] = system: vancomycin resistant Enterococcus faecium (VRE) (ATCC 51559); assay: as above; type: cell-based; details: 24 h, 37° C.
E. coli (MTCC 443) = assay: as above; type: cell-based; details: 24 h, 37° C.
[2] = system: Klebsiella pneumoniae (ATCC 700603); assay: as above; type: cell-based; details: 24 h, 37° C.
[3] = Antibacterial efficacy (MIC) after incubation in 50% human plasma; details: for MIC / activity: up to 24 h incubation in 50% human plasma
[4] = system: Enterococcus faecium (ATCC 19634); assay: Minimum Inhibitory Concentration, micro-dilution broth; type: cell-based
Ebola virus [5] = type: cell-based
S. aureus (MTCC 737) = assay: Minimum Inhibitory Concentration, micro-dilution broth; type: cell-based, Staphylococcus aureus; details: 24 h, 37° C.
Ebola virus [6] = type: cell-based; remark: listed apart in the source
[7] = system: RAW (macrophage) cell line; assay: Cytotoxicity, MTT assay
Ebola virus [8] = type: cell-based; remark: listed apart in the source
[9] = system: stationary-phase S. aureus; assay: Time-kill kinetics against stationary phase bacteria; type: cell-based; details: within 1 h of exposure, 50 μg/mL
S. aureus biofilms = assay: Bacterial biofilm disruption (pre-formed biofilm); type: cell-based; details: for reduction of cell viability in pre-existing biofilms: 24 h
[10] = system: Ebola virus (strain ME718); type: cell-based
[11] = system: Ebola virus (strain ME718); type: cell-based; remark: listed apart in the source
E. coli = assay: Resistance study, serial passage at MIC/2; type: cell-based; details: 30 passages
S. aureus = assay: Resistance study, serial passage at MIC/2; type: cell-based; details: 20 passages
HeLa cell line = assay: Cytotoxicity, MTT assay

For `CCCCCCCCCCCC(=O)N(CCCNC(=O)[C@@H](N)Cc1ccccc1)CCCNC(=O)[C@@H](N)Cc1ccccc1.O=C(O)C(F)(F)F.O=C(O)C(F)(F)F` [Compound 2, N,N-bis-[{3-(^LPhe)amino}propyl]dodecanamide bis(trifluoroacetate)], the HC50 (human Red Blood Cells) was 205, the “Minimum Inhibitory Concentration MRSA” value (MRSA (ATCC 33591)) was 4 µM and the MIC [1] was 2.7 µM. For the same compound, the MIC (E. coli (MTCC 443)) was 12 µM, the “Minimum Inhibitory Concentration K. pneumonie” value [2] was 9.7 µM and the MIC ([3]; after 2 h incubation with 50% plasma) was 10.7 µM. The MIC ([3]; after 4 h incubation with 50% plasma) was 22 µM, the MIC ([3]; before incubation with 50% human plasma) was 5.4 µM and the MIC / activity [3] was “remained same”.
For `CCCCCCCCCCCC(=O)N(CCCNC(=O)[C@H](N)Cc1ccccc1)CCCNC(=O)[C@H](N)Cc1ccccc1` [Compound 6, N,N-bis-[{3-(^DPhe)amino}propyl]dodecanamide bis(trifluoroacetate)], the MIC [1] was 2.9 µM, the MIC (E. coli (MTCC 443); Escherichia coli, MTCC443) was 12 µM and the stability in plasma ([3]; human plasma) was “stable in plasma”. The MIC / activity [3] was “did not show any loss of activity”, the MIC ([4]; 24 h, 37° C., read-out: Minimum Inhibitory Concentration E. faceium) was 3.3 µM and the MIC ([4]; Enterococcus faecium, ATCC19634, 24 h, read-out: Minimum Inhibitory Concentration E. faceium, 24 h, 37° C.) was 2 to 5 µM.
For `CCCCCCCCCCCCCC(=O)N(CCCNC(=O)[C@H](N)CCCCN)CCCNC(=O)[C@H](N)CCCCN.O=C(O)C(F)(F)F.O=C(O)C(F)(F)F` [Compound 16, N,N-bis-[{3-(^DLys)amino}propyl]tetradecanamide bis(trifluoroacetate)], the “rank of Ct value among 20 compounds” value (Ebola virus [5]) was “one of the top two Ct values”, the MIC (S. aureus (MTCC 737)) was 5.7 µM and the “rank of Ct value among 20 compounds” value (Ebola virus [6]) was “one of the top two Ct values”. The “EC50 (50% cells viability)” value ([7]; MTT) was over 70 µg/mL, the toxicity ([7]; at its MIC) was “did not show any toxicity” and the “Ct value, replicate wells 1-3” value (Ebola virus [8]) was 25.96 and 27.13 and 26.42 and 26.03 and 24.81 and 25.73 and 26.99 and 26.76 and 26.30 and 26.31 and 26.49 and 26.53 and 26.04 and 26.63 and 16.70 and 18.76 and 16.93 and 24.42 and 24.33 and 24.32 and 21.29 and 20.72 and 23.10 and 19.95 and 20.87 and 20.22 and 17.82 and 20.49 and 19.45. The “amount of viral genome present” value (Ebola virus [8]) was “reduced the amount of viral genome present”, the “reductions in cell viability” value [9] was “more than 3 Log CFU/mL” and the “reduction of cell viability in pre-existing biofilms” value (from here on “reduction of cell viability”) (S. aureus biofilms; 4×MIC) was 5 Log (CFU/mL). For the same compound, the “biofilm eradication, confocal microscopy” value (S. aureus biofilms; 10×MIC) was “significant biofilm eradication”, the “pre-formed biofilm mass, crystal violet staining” value (S. aureus biofilms; 10×MIC) was “enormous reduction in pre-formed biofilm mass” and the “reduction of cell viability” value (S. aureus biofilms; 10×MIC) was 6 Log (CFU/mL). For the same compound, the “reduction of cell viability” value (S. aureus biofilms; at its MIC concentration) was “more than 4 Log CFU/mL”, the MIC [1] was 2.8 µM and the “Ct value Ave” value [10] was 34.3 and 32.9. For the same compound, the “Drug - no drug Ct change” value [10] was 7.02 and 5.64, the “Ct value Ave” value [11] was 33.65 and 35.29 and the “Drug - no drug Ct change” value [11] was 3.76 and 5.40. The “fold increase in the MIC” value (E. coli) was “no change in the MIC”, the MIC (E. coli (MTCC 443)) was 5.4 µM and the “fold increase in the MIC” value (S. aureus) was “no change in the MIC”. For the same compound, the “EC50 (50% cells viability)” value (HeLa cell line; MTT) was over 70 µg/mL and the toxicity (HeLa cell line; at its MIC) was “did not show any toxicity”.
For `CCn1cc(C(=O)O)c(=O)c2cc(F)c(N3CCNCC3)cc21` [norfloxacin, reference compound], the “reduction of cell viability” value (S. aureus biofilms; 64×MIC) was “none of the antibiotics showed significant reduction” and the “fold increase in the MIC” value (S. aureus) was “around 800 fold”.
For colistin [reference compound], the “fold increase in the MIC” value (E. coli) was about 250 fold.
